Values of other authors, collected in US20210319872A1, “DRUG AND DEVICE COMBINATION PRODUCTS WITH IMPROVED SAFETY AND EFFICACY PROFILES” (priority 2016, published 2021).

Details: in vivo

## NCCCC[C@H](N[C@@H](CCc1ccccc1)C(=O)O)C(=O)N1CCC[C@H]1C(=O)O [Lisinopril (Prinivil, Zestril)]
  Dizziness: Neurologic: Dizziness (12% to 19%), Headache
  Hyperkalemia: Endocrine metabolic: Hyperkalemia (2.2% to 6%)
  Hypotension: Cardiovascular: Chest pain, Hypotension (up to 11%), Syncope
  Hypotension (Severe): Cardiovascular: Hypotension (Severe) (9%)
  Renal impairment: Renal: Acute renal failure, Renal impairment (2.4%)
  Stevens-Johnson syndrome: Dermatologic: Stevens-Johnson syndrome (1% or more), Toxic
  Syncope: (5% to 7%)

## OCCOCCN1CCN(C2=Nc3ccccc3Sc3ccccc32)CC1 [Seroquel (Quetiapine)]
  Abdominal pain: Gastrointestinal: Abdominal pain (3% to 7%), Constipation (2% to
  Agitation: Psychiatric: Agitation (6% to 20%)
  Asthenia: Neurologic: Asthenia (Up to 10%), Dizziness (8% to 19%),
  Backache: Musculoskeletal: Backache (3% to 5%)
  Dizziness: Neurologic: Asthenia (Up to 10%), Dizziness (8% to 19%),
  Extrapyramidal disease: Extrapyramidal disease (1.1% to 12.9%), Headache (17% to 21%),
  Fatigue: Other: Fatigue (3% to 14%), Pain (7%)
  Headache: Extrapyramidal disease (1.1% to 12.9%), Headache (17% to 21%),
  Increased appetite: 11%), Increased appetite (2% to 12%), Indigestion (2% to 7%),
  Increased liver enzymes: Hepatic: Increased liver enzymes (1% to 6%)
  Indigestion: 11%), Increased appetite (2% to 12%), Indigestion (2% to 7%),
  Insomnia: Insomnia (8% to 12%), Lethargy (1% to 5%), Somnolence (18% to
  Lethargy: Insomnia (8% to 12%), Lethargy (1% to 5%), Somnolence (18% to
  Nasal congestion: Respiratory: Nasal congestion (3% to 5%), Pharyngitis (4% to 6%)
  Nausea: Nausea (Pediatric, 6% to 10%), Vomiting (Pediatric, 7% to 8%),
  Neutropenia: Hematologic: Agranulocytosis, Leukopenia, Neutropenia (0.3% to
  Orthostatic hypotension: Orthostatic hypotension (Up to 7%), Tachycardia (Up to 6%)
  Pain: Other: Fatigue (3% to 14%), Pain (7%)
  Pharyngitis: Respiratory: Nasal congestion (3% to 5%), Pharyngitis (4% to 6%)
  Prolonged QT interval: Cardiovascular: Prolonged QT interval (0.1% to less than 1%),
  Seizure: Neurologic: Seizure (0.05% to 0.5%), Tardive dyskinesia
  Serious side effect, Cardiovascular: Sudden cardiac death, Syncope (0.3% to 1%)
  Serious side effect, Endocrine metabolic: Endocrine metabolic: Diabetic ketoacidosis
  Serious side effect, Gastrointestinal: Gastrointestinal: Pancreatitis
  Serious side effect, Hematologic: Hematologic: Agranulocytosis, Leukopenia, Neutropenia (0.3% to
  Serious side effect, Immunologic: Immunologic: Anaphylaxis
  Serious side effect, Neurologic: Neurologic: Seizure (0.05% to 0.5%), Tardive dyskinesia
  Serious side effect, Other: Other: Neuroleptic malignant syndrome
  Serious side effect, Psychiatric: Psychiatric: Suicidal thoughts
  Serious side effect, Reproductive: Reproductive: Priapism
  Serum cholesterol raised: Endocrine metabolic: Serum cholesterol raised (7% to 18%), Serum
  Serum triglycerides raised: triglycerides raised (8% to 28%), Weight gain (3% to 28%)
  Somnolence: Insomnia (8% to 12%), Lethargy (1% to 5%), Somnolence (18% to
  Syncope: Sudden cardiac death, Syncope (0.3% to 1%)
  Tachycardia: Orthostatic hypotension (Up to 7%), Tachycardia (Up to 6%)
  Tremor: 57%), Tremor (2% to 8%)
  Vomiting: Nausea (Pediatric, 6% to 10%), Vomiting (Pediatric, 7% to 8%),
  Weight gain: triglycerides raised (8% to 28%), Weight gain (3% to 28%)
  Xerostomia: Xerostomia (Adult, 9% to 44%; pediatric, 4% to 10%)

## COC(=O)[C@H](c1ccccc1Cl)N1CCc2sccc2C1 [Clopidogrel (Plavix ®)]
  Agranulocytosis: Hematologic: Agranulocytosis (Less than 1%), Aplastic anemia
  Aplastic anemia: (less then 1%), Bleeding, Major (0.8% to 3.7%), Pancytopenia
  Bleeding, Major: (less then 1%), Bleeding, Major (0.8% to 3.7%), Pancytopenia
  Bleeding, Non-major: Hematologic: Bleeding, Non-major (3.6% to 5.1%)
  Gastrointestinal hemorrhage: Gastrointestinal: Colitis, Gastrointestinal hemorrhage (2%; 2.7%
  Intraocular hemorrhage: Ophthalmic: Intraocular hemorrhage (0.05%)

## CN1CC[C@]23c4c5ccc(O)c4O[C@H]2C(=O)CC[C@@]3(O)[C@H]1C5 [Oxymorphone, reference compound]
  Abdominal pain: Gastrointestinal: Abdominal pain (1% to less than 10%),
  Bowel obstruction: Gastrointestinal: Bowel obstruction (less than 1%)
  Constipation: Constipation (4.1% to 27.6%), Nausea (2.9% to 33.1%), Vomiting
  Fatigue: Other: Fatigue (1% to less than 10%), Fever (1% to 14.2%)
  Fever: Other: Fatigue (1% to less than 10%), Fever (1% to 14.2%)
  Headache: 17%), Headache (4% to 12%), Somnolence (2% to 19%)
  Hypotension: Cardiovascular: Hypotension (less than 10%)
  Hypoxia: < 10%)
  Nausea: Constipation (4.1% to 27.6%), Nausea (2.9% to 33.1%), Vomiting
  Pruritus: Dermatologic: Pruritus (less than or equal to 15.2%), Sweating
  Serious side effect, Neurologic: Neurologic: Coma
  Serious side effect, Respiratory: Respiratory: Respiratory depression
  Somnolence: 17%), Headache (4% to 12%), Somnolence (2% to 19%)
  Sweating symptom: symptom (1% to less than 10%)
  Vomiting: (less than or equal to 15.6%), Xerostomia (1% to less than 10%)
  Xerostomia: (less than or equal to 15.6%), Xerostomia (1% to less than 10%)

## CN(C)CCC[C@@]1(c2ccc(F)cc2)OCc2cc(C#N)ccc21 [Escitalopram (Lexapro)]
  Abdominal pain: Gastrointestinal: Abdominal pain (2%), Constipation (3% to 6%),
  Constipation: Gastrointestinal: Abdominal pain (2%), Constipation (3% to 6%),
  Diaphoresis: Dermatologic: Diaphoresis (3% to 8%)
  Diarrhea: Diarrhea (6% to 14%), Indigestion (2% to 6%), Nausea (15% to
  Disorder of ejaculation: Reproductive: Disorder of ejaculation (9% to 14%), Erectile
  Dizziness: Neurologic: Dizziness (4% to 7%), Headache (24%), Insomnia (7%
  Erectile dysfunction: dysfunction (3%), Orgasm incapacity (females, 2% to 6%),
  Fatigue: Other: Fatigue (5% to 8%)
  Headache: Neurologic: Dizziness (4% to 7%), Headache (24%), Insomnia (7%
  Indigestion: Diarrhea (6% to 14%), Indigestion (2% to 6%), Nausea (15% to
  Insomnia: Neurologic: Dizziness (4% to 7%), Headache (24%), Insomnia (7%
  Orgasm incapacity: dysfunction (3%), Orgasm incapacity (females, 2% to 6%),
  Reduced libido: Reduced libido (3% to 7%)
  Somnolence: to 14%), Somnolence (4% to 13%)
  Vomiting: ≤ 18%), Vomiting (up to 3%), Xerostomia (4% to 9%)
  Xerostomia: 18%), Vomiting (up to 3%), Xerostomia (4% to 9%)

## COc1cccc(C2(O)CCCCC2CN(C)C)c1 (stereo not shown) [Tramadol (Ultram)]
  Anaphylactoid reaction: Immunologic: Anaphylactoid reaction (less than 1%)
  Constipation: Gastrointestinal: Constipation (10% to 46%), Nausea (13% to
  Dizziness: Neurologic: Dizziness (7% to 33%), Headache (3% to 32%),
  Dyspnea: Respiratory: Dyspnea (less than 5%), Respiratory depression
  Flushing: Dermatologic: Flushing (7.7% to 15.8%), Pruritus (3% to 11.9%)
  Headache: Neurologic: Dizziness (7% to 33%), Headache (3% to 32%),
  Insomnia: Insomnia (1% to 10.9%), Somnolence (4% to 25%)
  Myocardial infarction: Cardiovascular: Myocardial infarction (0.5% to less than 1%)
  Pancreatitis: Gastrointestinal: Pancreatitis (0.5% to less than 1%)
  Pruritus: Dermatologic: Flushing (7.7% to 15.8%), Pruritus (3% to 11.9%)
  Serotonin syndrome: Other: Serotonin syndrome (less than 1%)
  Somnolence: Insomnia (1% to 10.9%), Somnolence (4% to 25%)
  Vomiting: 40%), Vomiting (3% to 17%), Xerostomia (1% to 10%)
  Xerostomia: 40%), Vomiting (3% to 17%), Xerostomia (1% to 10%)

## CCCc1nc2c(C)cc(-c3nc4ccccc4n3C)cc2n1Cc1ccc(-c2ccccc2C(=O)O)cc1 [Telmisartan (Micardis))]
  Cough: Respiratory: Cough (1.6% to 15.6%), Upper respiratory infection
  Serious side effects, listed without incidence or only as rare: Musculoskeletal: Rhabdomyolysis (rare)
  Upper respiratory infection: (7%)

## COc1ccccc1OCCNCC(O)COc1cccc2[nH]c3ccccc3c12 (stereo not shown) [carvedilol, Common brand names - Coreg*]
  Abnormal weight gain: Endocrine metabolic: Abnormal weight gain (10% to 12%),
  Atrioventricular block: Cardiovascular: Atrioventricular block (greater than 1% to 3%)
  Bradyarrhythmia: Cardiovascular: Bradyarrhythmia (3% to 10%), Hypotension (1.8%
  Diarrhea: Gastrointestinal: Diarrhea (2% to 12%)
  Dizziness: Neurologic: Dizziness (6% to 33%)
  Erectile dysfunction: Reproductive: Erectile dysfunction (13.5%)
  Fatigue: Other: Fatigue (24%)
  Hyperglycemia: Hyperglycemia (5% to 12%)
  Hypotension: Cardiovascular: Bradyarrhythmia (3% to 10%), Hypotension (1.8%

## O=C1CCc2ccc(OCCCCN3CCN(c4cccc(Cl)c4Cl)CC3)cc2N1 [Aripiprazole (Abilify)]
  Akathisia: Neurologic: Akathisia (2% to 25%), Dizziness (4% to 10%),
  Angioedema: Other: Angioedema (0.1% to less than 1%), Increased body
  Anxiety: Psychiatric: Anxiety (4% to 17%), Restlessness (2% to 12%)
  Cardiorespiratory arrest: Cardiovascular: Cardiorespiratory arrest (0.1% to 1%),
  Cardiorespiratory failure: Cardiorespiratory failure (0.1% to 1%), Myocardial infarction
  Constipation: Gastrointestinal: Constipation (5% to 11%), Nausea (8% to 15%),
  Diabetic ketoacidosis: Endocrine metabolic: Diabetic ketoacidosis (Less than 0.1%)
  Dizziness: Neurologic: Akathisia (2% to 25%), Dizziness (4% to 10%),
  Extrapyramidal sign: Extrapyramidal sign (2% to 27.3%), Headache (10% to 27%),
  Fatigue: Other: Fatigue (2% to 17%)
  Headache: Extrapyramidal sign (2% to 27.3%), Headache (10% to 27%),
  Leukopenia: Hematologic: Agranulocytosis, Leukopenia (Less than 1%),
  Myocardial infarction: (0.1% to 1%), Prolonged QT interval (0.1% to 1%)
  Nausea: Gastrointestinal: Constipation (5% to 11%), Nausea (8% to 15%),
  Neutropenia: Neutropenia (Less than 1%)
  Pancreatitis: Gastrointestinal: Pancreatitis (Less than 0.1%)
  Prolonged QT interval: (0.1% to 1%), Prolonged QT interval (0.1% to 1%)
  Restlessness: Psychiatric: Anxiety (4% to 17%), Restlessness (2% to 12%)
  Rhabdomyolysis: Musculoskeletal: Rhabdomyolysis (Less than 0.1%)
  Sedated: Insomnia (8% to 18%), Sedated (3% to 21%), Somnolence (6% to
  Seizure: Neurologic: Cerebrovascular accident, Seizure (Up to 0.3%),
  Tremor: 26.3%), Tremor (2% to 11.8%)
  Vomiting: Vomiting (3% to 11%)
